Publication PMC11420776 (RSC Advances, 2024)

Legend:
HCC-2998 (colon cancer) = test: NCI 60-cell one-dose antiproliferative screen; assay type: cell-based, human; settings: one dose 10 μM
[1] = tested on: MDA-MB-468 (breast cancer); test: NCI 60-cell one-dose antiproliferative screen; assay type: cell-based, human; settings: one dose 10 μM
IGROV1 (ovarian cancer) = test: NCI 60-cell one-dose antiproliferative screen; assay type: cell-based, human; settings: one dose 10 μM
SK-MEL-28 (melanoma) = test: NCI 60-cell one-dose antiproliferative screen; assay type: cell-based, human; settings: one dose 10 μM
ACHN (renal cancer) = test: NCI 60-cell one-dose antiproliferative screen; assay type: cell-based, human; settings: one dose 10 μM
HT29 (colon cancer) = test: NCI 60-cell one-dose antiproliferative screen; assay type: cell-based, human; settings: one dose 10 μM
[2] = tested on: NCI-H23 (NSC lung cancer); test: NCI 60-cell one-dose antiproliferative screen; assay type: cell-based, human; settings: one dose 10 μM
[3] = tested on: NCI-H522 (NSC lung cancer); test: NCI 60-cell one-dose antiproliferative screen; assay type: cell-based, human; settings: one dose 10 μM
HOP-92 (NSC lung cancer) = test: NCI 60-cell one-dose antiproliferative screen; assay type: cell-based, human; settings: one dose 10 μM
PC-3 (prostate cancer) = test: NCI 60-cell one-dose antiproliferative screen; assay type: cell-based, human; settings: one dose 10 μM
HS 578T (breast cancer) = test: NCI 60-cell one-dose antiproliferative screen; assay type: cell-based, human; settings: one dose 10 μM
CCRF-CEM (leukemia) = test: NCI 60-cell one-dose antiproliferative screen; assay type: cell-based, human; settings: one dose 10 μM
MDA-MB-435 (melanoma) = test: NCI 60-cell one-dose antiproliferative screen; assay type: cell-based, human; settings: one dose 10 μM
SF-539 (CNS cancer) = test: NCI 60-cell one-dose antiproliferative screen; assay type: cell-based, human; settings: one dose 10 μM
CAKI-1 (renal cancer) = test: NCI 60-cell one-dose antiproliferative screen; assay type: cell-based, human; settings: one dose 10 μM
UO-31 (renal cancer) = test: NCI 60-cell one-dose antiproliferative screen; assay type: cell-based, human; settings: one dose 10 μM
MALME-3M (melanoma) = test: NCI 60-cell one-dose antiproliferative screen; assay type: cell-based, human; settings: one dose 10 μM
HCT-116 (colon cancer) = test: NCI 60-cell one-dose antiproliferative screen; assay type: cell-based, human; settings: one dose 10 μM
LOX IMIV (melanoma) = test: NCI 60-cell one-dose antiproliferative screen; assay type: cell-based, human; settings: one dose 10 μM
UACC-257 (melanoma) = test: NCI 60-cell one-dose antiproliferative screen; assay type: cell-based, human; settings: one dose 10 μM
SK-MEL-2 (melanoma) = test: NCI 60-cell one-dose antiproliferative screen; assay type: cell-based, human; settings: one dose 10 μM
[4] = tested on: MDA-MB-231/ATCC (breast cancer); test: NCI 60-cell one-dose antiproliferative screen; assay type: cell-based, human; settings: one dose 10 μM
MCF7 (breast cancer) = test: NCI 60-cell one-dose antiproliferative screen; assay type: cell-based, human; settings: one dose 10 μM
RXF 393 (renal cancer) = test: NCI 60-cell one-dose antiproliferative screen; assay type: cell-based, human; settings: one dose 10 μM
A498 (renal cancer) = test: NCI 60-cell one-dose antiproliferative screen; assay type: cell-based, human; settings: one dose 10 μM
OVCAR-8 (ovarian cancer) = test: NCI 60-cell one-dose antiproliferative screen; assay type: cell-based, human; settings: one dose 10 μM
HOP-62 (NSC lung cancer) = test: NCI 60-cell one-dose antiproliferative screen; assay type: cell-based, human; settings: one dose 10 μM
[5] = tested on: A549/ATCC (NSC lung cancer); test: NCI 60-cell one-dose antiproliferative screen; assay type: cell-based, human; settings: one dose 10 μM
M14 (melanoma) = test: NCI 60-cell one-dose antiproliferative screen; assay type: cell-based, human; settings: one dose 10 μM
[6] = tested on: NCI-H460 (NSC lung cancer); test: NCI 60-cell one-dose antiproliferative screen; assay type: cell-based, human; settings: one dose 10 μM
[7] = tested on: NCI/ADR-RES (ovarian cancer); test: NCI 60-cell one-dose antiproliferative screen; assay type: cell-based, human; settings: one dose 10 μM
[8] = tested on: 60 human tumor cell lines; test: NCI 60-cell one-dose antiproliferative screen, whole panel; assay type: cell-based; settings: Homo sapiens, 60 cell, read-out: Mean inhibition (mean GI%)
SF-295 (CNS cancer) = test: NCI 60-cell one-dose antiproliferative screen; assay type: cell-based, human; settings: one dose 10 μM
TK-10 (renal cancer) = test: NCI 60-cell one-dose antiproliferative screen; assay type: cell-based, human; settings: one dose 10 μM
COLO-205 (colon cancer) = test: NCI 60-cell one-dose antiproliferative screen; assay type: cell-based, human; settings: one dose 10 μM
SNB-19 (CNS cancer) = test: NCI 60-cell one-dose antiproliferative screen; assay type: cell-based, human; settings: one dose 10 μM
U251 (CNS cancer) = test: NCI 60-cell one-dose antiproliferative screen; assay type: cell-based, human; settings: one dose 10 μM
EKVX (NSC lung cancer) = test: NCI 60-cell one-dose antiproliferative screen; assay type: cell-based, human; settings: one dose 10 μM
786-0 (renal cancer) = test: NCI 60-cell one-dose antiproliferative screen; assay type: cell-based, human; settings: one dose 10 μM
[9] = tested on: NCI-H322M (NSC lung cancer); test: NCI 60-cell one-dose antiproliferative screen; assay type: cell-based, human; settings: one dose 10 μM
OVCAR-5 (ovarian cancer) = test: NCI 60-cell one-dose antiproliferative screen; assay type: cell-based, human; settings: one dose 10 μM
OVCAR-3 (ovarian cancer) = test: NCI 60-cell one-dose antiproliferative screen; assay type: cell-based, human; settings: one dose 10 μM
UACC-62 (melanoma) = test: NCI 60-cell one-dose antiproliferative screen; assay type: cell-based, human; settings: one dose 10 μM
T-47D (breast cancer) = test: NCI 60-cell one-dose antiproliferative screen; assay type: cell-based, human; settings: one dose 10 μM
SNB-75 (CNS cancer) = test: NCI 60-cell one-dose antiproliferative screen; assay type: cell-based, human; settings: one dose 10 μM
SK-OV-3 (ovarian cancer) = test: NCI 60-cell one-dose antiproliferative screen; assay type: cell-based, human; settings: one dose 10 μM
OVCAR-4 (ovarian cancer) = test: NCI 60-cell one-dose antiproliferative screen; assay type: cell-based, human; settings: one dose 10 μM
DU-145 (prostate cancer) = test: NCI 60-cell one-dose antiproliferative screen; assay type: cell-based, human; settings: one dose 10 μM
SF-268 (CNS cancer) = test: NCI 60-cell one-dose antiproliferative screen; assay type: cell-based, human; settings: one dose 10 μM
KM12 (colon cancer) = test: NCI 60-cell one-dose antiproliferative screen; assay type: cell-based, human; settings: one dose 10 μM
[10] = tested on: NCI-H226 (NSC lung cancer); test: NCI 60-cell one-dose antiproliferative screen; assay type: cell-based, human; settings: one dose 10 μM
HCT-15 (colon cancer) = test: NCI 60-cell one-dose antiproliferative screen; assay type: cell-based, human; settings: one dose 10 μM
RPMI-8226 (leukemia) = test: NCI 60-cell one-dose antiproliferative screen; assay type: cell-based, human; settings: one dose 10 μM
SN12C (renal cancer) = test: NCI 60-cell one-dose antiproliferative screen; assay type: cell-based, human; settings: one dose 10 μM
SW-620 (colon cancer) = test: NCI 60-cell one-dose antiproliferative screen; assay type: cell-based, human; settings: one dose 10 μM

Cc1ccc(-c2nnc3ccc(NN=Cc4ccccc4)nn23)cc1 [Compound 4d, 6-(2-Benzylidenehydrazinyl)-3-(p-tolyl)-[1,2,4]triazolo[4,3-b]pyridazine]
GI% (HCC-2998 (colon cancer)): — (— GI% is below 15%) | GI% [1]: — (— GI% is below 15%) | GI% (IGROV1 (ovarian cancer)): — (— GI% is below 15%) | GI% (SK-MEL-28 (melanoma)): — (— GI% is below 15%) | GI% (ACHN (renal cancer)): — (— GI% is below 15%) | GI% (HT29 (colon cancer)): — (— GI% is below 15%) | GI% [2]: 39.55% | GI% [3]: — (— GI% is below 15%) | GI% (HOP-92 (NSC lung cancer)): 29.46% | GI% (PC-3 (prostate cancer)): — (— GI% is below 15%) | GI% (HS 578T (breast cancer)): 53.45% | GI% (CCRF-CEM (leukemia)): — (— GI% is below 15%) | GI% (MDA-MB-435 (melanoma)): 23.87% | GI% (SF-539 (CNS cancer)): 19.19% | GI% (CAKI-1 (renal cancer)): 16.69% | GI% (UO-31 (renal cancer)): 15.52% | GI% (MALME-3M (melanoma)): — (— GI% is below 15%) | GI% (HCT-116 (colon cancer)): — (— GI% is below 15%) | GI% (LOX IMIV (melanoma)): 52.47% | GI% (UACC-257 (melanoma)): — (— GI% is below 15%) | GI% (SK-MEL-2 (melanoma)): — (— GI% is below 15%) | GI% [4]: — (— GI% is below 15%) | GI% (MCF7 (breast cancer)): 52.06% | GI% (RXF 393 (renal cancer)): — (— GI% is below 15%) | GI% (A498 (renal cancer)): — (— GI% is below 15%) | GI% (OVCAR-8 (ovarian cancer)): — (— GI% is below 15%) | GI% (HOP-62 (NSC lung cancer)): — (— GI% is below 15%) | GI% [5]: — (— GI% is below 15%) | GI% (M14 (melanoma)): 32.66% | GI% [6]: 31.51% | GI% [7]: 15.93% | inhibition at 10 µM [8]: 18.3% | GI% (SF-295 (CNS cancer)): 47.66% | GI% (TK-10 (renal cancer)): — (— GI% is below 15%) | GI% (COLO-205 (colon cancer)): — (— GI% is below 15%) | GI% (SNB-19 (CNS cancer)): — (— GI% is below 15%) | GI% (U251 (CNS cancer)): 24.9% | GI% (EKVX (NSC lung cancer)): 23.07% | GI% (786-0 (renal cancer)): — (— GI% is below 15%) | GI% [9]: — (— GI% is below 15%) | GI% (OVCAR-5 (ovarian cancer)): — (— GI% is below 15%) | GI% (OVCAR-3 (ovarian cancer)): 69.65% | GI% (UACC-62 (melanoma)): — (— GI% is below 15%) | GI% (T-47D (breast cancer)): — (— GI% is below 15%) | GI% (SNB-75 (CNS cancer)): >100% | GI% (SK-OV-3 (ovarian cancer)): — (— GI% is below 15%) | GI% (OVCAR-4 (ovarian cancer)): 30.86% | GI% (DU-145 (prostate cancer)): 24.06% | GI% (SF-268 (CNS cancer)): 42.23% | GI% (KM12 (colon cancer)): 42.77% | GI% [10]: — (— GI% is below 15%) | GI% (HCT-15 (colon cancer)): 30.81% | GI% (RPMI-8226 (leukemia)): 19.37% | GI% (SN12C (renal cancer)): — (— GI% is below 15%) | GI% (SW-620 (colon cancer)): — (— GI% is below 15%)
